{
  "source": "patent US20260166017A1",
  "about": "“SARM1 INHIBITORS FOR USE IN THERAPY AND COSMETICS” (priority 2022, published 2026)",
  "key": {"[1]": {"tested_on": "human dermal skin fibroblasts", "assay": "Cell death assay in human dermal skin fibroblasts (propidium iodide)", "assay_type": "cell-based", "settings": "high dose vacor (100 μM), 72 h vs DMSO", "method": "(§1) Human primary myoblasts and human dermal skin fibroblasts were cultured following previously described protocols (Kisiel and Klar 2019; Rozwadowska et al. 2022). Drug treatment was started when cells reached the desired confluency. To visualise cell death, 1 μg/ml propidium iodide (PI) (Thermo Fisher Scientific) was added to the media at the same time of drug addition (Loreto et al. 2021). Phase contrast and fluorescence microscopy images were acquired on a DMi8 upright fluorescence microscope (Leica microsystems) coupled to a monochrome digital camera (Hamamatsu C4742-95). The objective used was HCXPL 20 X/0.40 CORR."}, "[2]": {"tested_on": "freshly plated P2 mouse Schwann cells", "assay": "Cell death in freshly plated P2 mouse Schwann cells (propidium iodide, DAPI, SOX10)", "assay_type": "cell-based", "settings": "100 μM vacor for 72 hours vs DMSO", "method": "Freshly plated mouse Schwann cells were obtained from P2 sciatic and brachial nerves. Nerves were digested with trypsin and collagenase, centrifuged and plated on laminin/Poly-L-lysine coated glass coverslips in defined medium as previously described (Arthur-Farraj et al., 2011).\nSciatic and optic nerves were dissected from Wt and Sarm1 KO mice and directly embedded in O.C.T. compound, without fixing, and stored at −80° C. until ready for cryosectioning. Cryosections at 5 μm thick were collected onto SuperFrost plus slides. These slides were post-fixed in 4% paraformaldehyde (PFA) at room temperature for 10 mins followed by three washes of 5 mins each with 1×PBS. The slides were then immersed in 100% methanol at −20° C. for 10 mins, followed by three washes of 5 mins each with 1×PBS. The slides were then blocked in 5% horse serum (HS)/0.2% Triton x-100/PBS for 30 mins at room temperature. Primary antibodies were diluted in blocking solution and slides were incubated overnight at 4° C. The following day, the slides were washed once for 5 mins with 1×PBS, twice for 5 mins with 0.1% tween/PBS and finally once again for 5 mins with 1×PBS before adding secondary antibodies. The corresponding secondary antibodies were diluted at 1:500 along with DAPI at 1:2000 for 2 hrs at room temperature and kept in the dark. […]"}, "[3]": {"tested_on": "human primary myoblasts", "assay": "Cell death assay in human primary myoblasts (propidium iodide)", "assay_type": "cell-based", "settings": "high dose vacor (100 μM), 24 h vs DMSO", "method": "as §1"}, "[4]": {"tested_on": "Rat oligodendrocytes", "assay": "Cell death / SOX10 positive cell survival in cultured rat oligodendrocytes", "assay_type": "cell-based", "settings": "100 μM vacor for 72 hours vs DMSO", "method": "Sprague-Dawley neonatal (sp7) rat pups were decapitated following lethal overdose with pentobarbital. The brains were dissected and submerged into Hibernate-A low fluorescence media (Transnetyx Tissue, #HALF). The tissue was cut into 1-mm^3 pieces, washed in HBSS^−/− (Gibco, #11039047), then spun down at 100 g for 1 min at room temperature. To digest the tissue, the tissue was incubated in 34 U/mL papain (Worthington, #LS003127) and 40 μg/mL DNase I (Sigma, #D5025) in HALF, and incubated on an orbital shaker (55 rpm) for 40 min at 37° C. […] To collect the A2B5+ fraction, the MACS MS column (Miltenyi, #130-042-201) was removed from the magnetic stand (Miltenyi, #130-042-102) and cells were flushed from the column with 1 ml of prewarmed OPC medium (DMEM F/12 containing N-Acetyl cysteine (60 μg/ml, Sigma, #A9165), human recombinant insulin (10 ug/ml), sodium pyruvate (1 mM, Thermo Fisher, #11360-070), apo-transferrin (50 μg/ml, Sigma, #T2036), putrescine (16.1 μg/ml, Sigma, #P7505), sodium selenite (40 ng/ml, Sigma, #S5261), progesterone (60 ng/ml, Sigma, #P0130), bovine serum albumin (330 μg/ml, Sigma, #A4919). Cells were counted, then seeded at a density of 20,000 cells/cm^2 on poly-D-lysine (5 μg/ml PDL, Sigma #P6407) coated plates. […]"}, "[5]": {"tested_on": "neuronal cultures", "settings": "Loreto et al., 2021, Wu et al.; cited from earlier work"}, "[6]": {"settings": "LeWitt, 1980; Loreto et al., 2021; cited from earlier work"}},
  "note": "“Also recorded” adds a separate entry of the source.",
  "data": [
    {"smiles": "O=C(NCc1cccnc1)Nc1ccc([N+](=O)[O-])cc1", "note": "[vacor, Vacor]", "values": [
      {"measurement": "cell death by propidium iodide (P.I.) staining", "setting": "[1]", "value": "completely insensitive; also recorded: no cell death occurs"},
      {"measurement": "cell death judged by propidium iodide (P.I) and DAPI nuclear staining and SOX10 immunocytochemistry", "setting": "[2]", "value": "completely insensitive; also recorded: no cell death"},
      {"measurement": "cell death by propidium iodide (P.I.) staining", "setting": "[3]", "value": "completely insensitive; also recorded: no cell death occurs"},
      {"measurement": "cell death judged by DAPI nuclear staining and SOX10 immunocytochemistry", "setting": "[4]", "value": "died within hours; also recorded: substantial cell death"},
      {"measurement": "effect of high dose on neuronal cultures", "setting": "[5]", "value": "axonal degeneration and cell death within hours"},
      {"measurement": "neurotoxic effects in humans", "setting": "[6]", "value": "severe neurotoxic effects"}
    ]}
  ]
}
